Test results from ChEMBL document CHEMBL4177674, “Cyclotides, a versatile ultrastable micro-protein scaffold for biotechnological applications” (Bioorg Med Chem Lett, 2017).
Bridge positions count the residues as written; N and C are the ends. Peptide text beside a SMILES is read from it.

Target: T1, Serine protease 1 (Bos taurus, UniProt P00760)
T1 sequence (P00760 whole entry): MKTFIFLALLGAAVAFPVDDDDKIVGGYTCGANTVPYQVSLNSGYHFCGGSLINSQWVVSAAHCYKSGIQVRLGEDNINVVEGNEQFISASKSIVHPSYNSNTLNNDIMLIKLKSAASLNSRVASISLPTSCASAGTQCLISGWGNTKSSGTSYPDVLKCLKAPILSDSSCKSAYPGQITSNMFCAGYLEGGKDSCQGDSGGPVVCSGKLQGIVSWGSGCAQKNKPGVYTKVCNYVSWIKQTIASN
Assay: Inhibition of bovine beta-trypsin incubated for 5 mins using BAPNA as substrate by colorimetric assay

Row | Ki [nM] | Structure (SMILES)
1 | 0.02 to 0.03 | CC[C@H](C)[C@@H]1NC(=O)[C@@H]2CCCN2C(=O)[C@H](Cc2c[nH]c3ccccc23)NC(=O)[C@H]([C@@H](C)O)NC(=O)[C@@H]2CSSC[C@@H]3NC(=O)[C@H]([C@@H](C)O)NC(=O)[C@H](CCC(=O)O)NC(=O)CNC(=O)[C@@H]4CSSC[C@H](NC(=O)CNC(=O)[C@@H]5CCCN5C(=O)[C@H]([C@@H](C)O)NC(=O)[C@H](CC(N)=O)NC(=O)[C@H](CSSC[C@H](NC1=O)C(=O)N[C@@H]([C@@H](C)O)C(=O)N[C@@H](CCCNC(=N)N)C(=O)N[C@@H](CC(=O)O)C(=O)NCC(=O)N[C@@H](CC(C)C)C(=O)N1CCC[C@H]1C(=O)N[C@@H](C(C)C)C(=O)N4)NC(=O)[C@H]([C@@H](C)O)NC(=O)CNC(=O)CNC(=O)[C@H](Cc1ccccc1)NC3=O)C(=O)N[C@@H](CO)C(=O)N2 (cyclo(CFGGTCNTPGCSCTWPICTRDGLPVCGET); disulfide 1-13, 6-18, 11-26)
2 | 0.02 to 0.03 | CC[C@H](C)[C@@H]1NC(=O)[C@H](C)NC(=O)[C@H](CO)NC(=O)[C@H](CO)NC(=O)[C@H]([C@@H](C)CC)NC(=O)[C@@H]2CSSC[C@@H]3NC(=O)[C@H](C(C)C)NC(=O)[C@H](CCCCN)NC(=O)[C@H](CO)NC(=O)[C@H](CCCCN)NC(=O)[C@@H]4CSSC[C@H](NC(=O)[C@H](CO)NC(=O)[C@H](CCC(=O)O)NC(=O)CNC(=O)[C@H](CSSC[C@H](NC(=O)CNC1=O)C(=O)N[C@@H](CO)C(=O)N4)NC(=O)[C@@H]1CCCN1C(=O)[C@H]([C@@H](C)CC)NC(=O)CNC(=O)[C@H](CC(N)=O)NC(=O)[C@H](CCCNC(=N)N)NC(=O)[C@H](Cc1ccc(O)cc1)NC3=O)C(=O)N[C@@H](C(C)C)C(=O)N[C@@H](Cc1c[nH]c3ccccc13)C(=O)N[C@@H]([C@@H](C)CC)C(=O)N1CCC[C@H]1C(=O)N2 (cyclo(AIGCSCKSKVCYRNGIPCGESCVWIPCISS); disulfide 4-18, 6-22, 11-27)
3 | 0.02 to 0.03 | CCC(C)[C@@H]1NC(=O)CNC(=O)[C@H](CC(N)=O)NC(=O)[C@H](Cc2ccc(O)cc2)NC(=O)[C@@H]2CSSC[C@@H]3NC(=O)[C@@H]4CCCN4C(=O)[C@H](C(C)CC)NC(=O)[C@H](Cc4ccc(O)cc4)NC(=O)[C@H](C(C)C)NC(=O)[C@@H]4CSSC[C@H](NC(=O)[C@H](CO)NC(=O)[C@H](CSSC[C@H](NC(=O)[C@@H]5CCCN5C1=O)C(=O)N[C@@H](C)C(=O)N[C@@H](CCC(=O)O)C(=O)N[C@@H](CO)C(=O)N4)NC(=O)CNC(=O)[C@H](CC(C)C)NC(=O)[C@H](CC(C)C)NC(=O)[C@H](C)NC(=O)[C@H]([C@@H](C)O)NC(=O)[C@H](C(C)C)NC(=O)[C@H]([C@@H](C)O)NC3=O)C(=O)N[C@@H](CO)C(=O)N[C@@H](CC(N)=O)C(=O)N[C@@H](CCCNC(=N)N)C(=O)N[C@@H](C(C)C)C(=O)N2 (stereo partly drawn)
